Reference: PubChem BioAssay (NCI)
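Briefly, cells in 96-well plates were exposed to five compound concentrations for 48 h, and endpoints were estimated by linear interpolation. Here, GI50 denotes the concentration required for 50% inhibition of growth. The concentration for full growth arrest is given as TGI.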

Columns and labels:
Assay in all cases: NCI tumour cell line growth inhibition, 48 h
MDA-MB-435 = test system: MDA-MB-435
SK-OV-3 ovarian = test system: SK-OV-3 ovarian
RXF 393 renal = test system: RXF 393 renal
CCRF-CEM leukemia = test system: CCRF-CEM leukemia
HCC-2998 colon = test system: HCC-2998 colon
HL-60(TB) leukemia = test system: HL-60(TB) leukemia
TK-10 renal = test system: TK-10 renal
U251 CNS = test system: U251 CNS
HCT-15 colon = test system: HCT-15 colon
OVCAR-8 ovarian = test system: OVCAR-8 ovarian

| Structure (SMILES) | GI50 (MDA-MB-435) [µM] | TGI (MDA-MB-435) [µM] | GI50 (SK-OV-3 ovarian) [µM] | TGI (SK-OV-3 ovarian) [µM] | GI50 (RXF 393 renal) [µM] | TGI (RXF 393 renal) [µM] | GI50 (CCRF-CEM leukemia) [µM] | TGI (CCRF-CEM leukemia) [µM] | GI50 (HCC-2998 colon) [µM] | TGI (HCC-2998 colon) [µM] | GI50 (HL-60(TB) leukemia) [µM] | TGI (HL-60(TB) leukemia) [µM] | GI50 (TK-10 renal) [µM] | TGI (TK-10 renal) [µM] | GI50 (U251 CNS) [µM] | TGI (U251 CNS) [µM] | GI50 (HCT-15 colon) [µM] | TGI (HCT-15 colon) [µM] | GI50 (OVCAR-8 ovarian) [µM] | TGI (OVCAR-8 ovarian) [µM] |
| --- | --- | --- | --- | --- | --- | --- | --- | --- | --- | --- | --- | --- | --- | --- | --- | --- | --- | --- | --- | --- |
| CN1CCN(Cc2ccc(NC(=O)c3cncc(C#Cc4ccc(N)nc4)c3)cc2C(F)(F)F)CC1 | 1.09 | 5.68 | 0.693 | 4.69 | 0.524 | 2.14 | 1.46 | 11.8 | 1.96 | 6.96 | 0.945 | 2.25 | 1.63 | 9.54 | 0.924 | 6.6 | 1.12 | 5.96 | 1.73 | 9.9 |
| Cc1ccsc1C(NC(=O)c1ccccc1)c1cc(Cl)c2cccnc2c1O (stereo not drawn) | 0.505 | 17.2 | 0.617 | 7.96 | 1.77 | 6.08 | 0.48 | 39 | 0.775 | 16.2 | 0.808 | 5.07 | 0.579 | 12.6 | 0.318 | 10.4 | 0.266 | 16.6 | 0.405 | 24 |
| Nc1nc(-c2ccc3c(c2)/C(=C\c2cc(Br)c(O)c(Br)c2)C(=O)N3)cs1 | 4.68 | 12 | 17.9 | > 25 | 12.5 | > 25 | 9.36 | > 25 | 17.8 | > 25 | 8.91 | > 22.6 | > 25 | > 25 | 12.8 | > 25 | > 20.2 | > 25 | > 25 | > 25 |
| CCC[CH2][Sn]1([CH2]CCC)[O]C(=O)c2cccc([N+](=O)[O-])c2C(=O)[O]1 | 0.594 | 1.91 | 1.69 | 3.07 | 0.27 | 0.783 | 0.0617 | 0.683 | 1.11 | 2.45 | 0.206 | 1.35 | 0.335 | 0.805 | 0.633 | 1.94 | 0.3 | 1.31 | 1.04 | 2.24 |
| C[C@]12CCC(=O)C=C1C[C@@H](O)[C@@H]1[C@@H]2CC[C@@]2(C)[C@H]1CC[C@]2(C)O |  | > 100 |  | > 100 |  | > 100 |  | > 100 |  | > 100 |  | > 100 |  | > 100 |  | > 100 |  | > 100 |  | > 100 |
| CN(C(=O)C(C)(C)C)c1ccccc1I(=O)=O | > 100 | > 100 | > 100 | > 100 | > 100 | > 100 | 8.62 | 31.6 | > 100 | > 100 | 3.81 | > 100 | > 100 | > 100 | 89.1 | > 100 | 84.3 | > 100 | > 100 | > 100 |
| C=C1C(=O)O[C@@H]2/C=C(/C)[C@@H](OC(C)=O)C[C@@H](O)/C(C)=C\[C@@H](OC(=O)[C@]3(C)O[C@@H]3C)[C@@H]12 |  | 28.8 |  | > 100 |  | 29.3 |  | 11.7 |  | 34.5 |  | 7.85 |  | 29.5 |  | 31.3 |  | 34.1 |  | 27.4 |
| O=C1OC(OC/C(Br)=C(\Br)COC2OC(=O)C(Cl)=C2Cl)C(Cl)=C1Cl (stereo not drawn) |  | 21.4 |  | 43 |  | 6.1 |  | 2.34 |  | 33.7 |  | 1.43 |  | 15.2 |  | 19 |  | 10.1 |  | 13.3 |
| Oc1c(C(Nc2ccccn2)c2ccccc2)ccc2cccnc12 (stereo not drawn) |  | > 100 |  | 63.8 |  | 40.1 |  | 3.81 |  | > 100 |  | 6.17 |  | > 25.9 |  | 12.3 |  | > 100 |  | 23.7 |
| O=C1/C=C/[C@@H](O)[C@@H]2C[C@@H](O)C[C@H]2/C=C/CCC[C@H](CCO)O1 | 0.254 | > 100 | 0.287 | > 100 | 0.0272 | 0.117 | 0.362 | > 100 | 0.227 |  | 0.315 | 1.16 | 0.245 | 0.832 | 0.382 | > 100 | 0.35 | > 100 | 0.153 |  |
| COc1cc2ncnc(Oc3ccc(NC(=O)Nc4ccc(CN5CCOCC5)c(C(F)(F)F)c4)c4ccccc34)c2cc1OC | 0.436 | 2.83 | 0.254 | 1.26 | 0.692 | 5.69 | 1.18 | 40.7 | 4.8 | 18.8 | 0.502 | 2.76 | 0.445 | 6.95 | 1.05 | 4.01 | 1.04 | 4.7 | 0.537 | 6.53 |
| CCC(=O)NC1=C(Cl)C(=O)C(NC(=O)CC)=C(Cl)C1=O | 18.9 | 33.8 | > 73.1 | > 100 | 6.64 | 12.8 | 3.04 | > 21.6 | 17.4 | 32.1 | 2.42 | > 23.7 | 6.91 | 15.4 | > 41.9 | > 56 | 9.02 | 27.1 | 37.4 | > 60.6 |
| CC(C)(C)NCC(O)c1ccccc1Cl (stereo not drawn) | > 100 | > 100 | > 100 | > 100 | > 100 | > 100 | > 100 | > 100 | > 100 | > 100 | > 100 | > 100 | > 100 | > 100 | > 100 | > 100 | > 100 | > 100 | > 100 | > 100 |
| C[C@]12CC[C@H]3[C@@H](CC[C@]4(O)C[C@@H](O)CC[C@]34C=O)[C@@]1(O)CC[C@@H]2C1=CC(=O)OC1 |  | 1.83 |  | 2.79 |  | 0.877 |  | > 100 |  | 7.13 |  | 47.6 |  | 1.63 |  | 2.9 |  | 1.47 |  | 1.69 |
